Laboratory results taken from patent US7223797B2, “Meldonium salts, method of their preparation and pharmaceutical composition on their basis” (Joint Stock Company “Grindeks”, priority 2003, dated 2007).

Assays:
[1] = Sample hygroscopicity test: H2O content before and after 24 hours at 100% humidity; assay type: physicochemical; settings: for Initial H2O content in the sample: before the test; for Initial H2O content in the sample / H2O content after 24 hours maintenance at 100% humidity: Fischer titration; for hygroscopicity (in words): qualitative statement; for H2O content after 24 hours maintenance at 100% humidity: closed vessel over water
Description: Sample hygroscopicity was tested by H2O content determination before the test and after 24 hours maintenance at 100% humidity (keeping in a closed vessel over water). On such conditions, Meldonium absorbs 10% water (as to mass increase) during 24 hours. Water content was determined by titration by Fischer's method; in cases of syrup formation water content is determined by sample mass increase.

[2] = Thermal / storage stability; assay type: physicochemical; settings: qualitative statement
[3] = humans; cited from earlier work
[4] = rats; cited from earlier work

| Sample mass increase due to absorbed water ([1]; 24 hours at 100% humidity) | Initial H2O content in the sample [1] | H2O content after 24 hours maintenance at 100% humidity [1] | Compound | other results |
| --- | --- | --- | --- | --- |
| – | 0.3919% | remains unchanged | C[N+](C)(C)NCCC(=O)[O-] [Meldonium orotate (1:1)] | – |
| 11.8% | 0.313% | – | C[N+](C)(C)NCCC(=O)O.C[N+](C)(C)NCCC(=O)O.O=S(=O)([O-])[O-] [Meldonium sulfate (2:1)] | – |
| – | 0.0762% | remains unchanged | C[N+](C)(C)NCCC(=O)O.O=P([O-])(O)O [Meldonium phosphate (1:1)] | – |
| – | 1.98% | 12.8% | C[N+](C)(C)NCCC(=O)[O-].O=C(O)C(O)C(O)C(O)C(O)C(=O)O (stereo not shown) [Meldonium mucate (galactarate; 1:1)] | – |
| – | 0.1661% | 3.1211% | C[N+](C)(C)NCCC(=O)O.O=C([O-])C(=O)O [Meldonium oxalate (1:1)] | – |
| 20% | 1.4189% | – | C[N+](C)(C)NCCC(=O)O.O=S(=O)([O-])O [Meldonium sulfate (1:1)] | – |
| – | 0.387% | 4.6844% | C[N+](C)(C)NCCC(=O)O.O=C([O-])C=CC(=O)O [Meldoniuma maleate (1:1)] | – |
| – | 3.0414% | 7.6830% | C[N+](C)(C)NCCC(=O)[O-].C[N+](C)(C)NCCC(=O)[O-].O.O=C(O)C(O)C(O)C(O)C(O)C(=O)O (stereo not shown) [Meldonium mucate (galactarate; 2:1; ×H2O)] | – |
| 9% | 1.71% | – | C[N+](C)(C)NCCC(=O)O.O.O=C([O-])c1cc2ccccc2c(Cc2c(O)c(C(=O)O)cc3ccccc23)c1O [Meldonium pamoate (1:1; ×H2O)] | – |

Further lines, the compound ahead of its results:

| Compound | Sample mass increase due to absorbed water ([1]; 24 hours at 100% humidity) | Initial H2O content in the sample [1] | H2O content after 24 hours maintenance at 100% humidity [1] | other results |
| --- | --- | --- | --- | --- |
| C[N+](C)(C)NCCC(=O)[O-].C[N+](C)(C)NCCC(=O)[O-].O=C(O)C=CC(=O)O [Meldonium maleate (2:1)] | 18% | 1.3595% | – | – |
| acetate [reference compound] | – | – | – | hygroscopicity (in words) [1]: hygroscopic |
| C[N+](C)(C)NCCC(=O)O.O.O.O=C([O-])CC(O)(CC(=O)[O-])C(=O)[O-].[Mg+2] [Meldonium magnesium citrate (1:1:1; ×2H2O)] | – | 9.45% | – | State of the sample after maintenance at 100% humidity ([1]; 24 hours at 100% humidity): the sample diffused |
| citrate | – | – | – | hygroscopicity (in words) [1]: hygroscopic |
| C[N+](C)(C)NCCC(=O)O.NC(CC(=O)O)C(=O)[O-].O.O [Meldonium L-(+)-aspartate (1:1; ×2H2O)] | 18% | 12.5% | – | – |
| C[N+](C)(C)NCCC(=O)O.O=C([O-])C(Cl)Cl [Meldonium dichloroacetate (1:1)] | 12% | 1.17% | – | – |
| Cl [hydrogen chloride, reference compound] | – | – | – | hygroscopicity (in words) [1]: hygroscopic |
| Meldonium sulfate | – | – | – | hygroscopicity (in words) [1]: hygroscopic |
| C[N+](C)(C)NCCC(=O)[O-].O=C(O)C=CC(=O)O [Meldonium fumarate (1:1)] | – | 0.18% | remains unchanged | – |
| C[N+](C)(C)NCCC(=O)O.C[N+](C)(C)NCCC(=O)O.NCCS(=O)(=O)[O-].NCCS(=O)(=O)[O-].O.O.O [Meldonium 2-aminoethane sulfonate (taurate; 1:1; ×1.5H2O)] | – | 9,4824% | 17.0854% | – |
| C[N+](C)(C)NCCC(=O)[O-] [anhydrous form of Meldonium, reference compound] | – | – | – | hygroscopicity (in words) [1]: extremely hygroscopic; stability (in words) [2]: unstable |
| C[N+](C)(C)NCCC(=O)[O-] [Meldonium, 3-(2,2,2-trimethylhydrazinium) propionate] | – | – | – | stability (in words) [2]: not very stable; half-elimination period [3]: 4 to 10 h; half-elimination period compared with humans [4]: longer |
| CC(O)C(=O)O.C[N+](C)(C)NCCC(=O)[O-] [Meldonium lactate (1:1)] | – | – | – | hygroscopicity (in words) [1]: hygroscopic |
| C[N+](C)(C)NCCC(=O)[O-].O.O.O=C([O-])CCC(=O)[O-].[Mg+2] [Meldonium magnesium succinate (1:1:1; ×2H2O)] | 20% | 10.1215% | – | – |
| CN(CC(=O)O)C(=N)N.C[N+](C)(C)NCCC(=O)[O-].O.O.O [Meldonium creatinate (1:1; ×3H2O)] | 18% | 15.8% | – | – |
| C[N+](C)(C)NCCC(=O)[O-].C[N+](C)(C)NCCC(=O)[O-].O=C(O)C=CC(=O)O [Meldonium fumarate (2:1)] | – | 1.5136% | 13.4707% | – |
